Legend:
Assay type in all cases: functional
[1] = test system: RPMI-8226; experiment: Cytotoxicity against human RPMI8226 cells after 48 hrs by SRB assay; conditions: RPMI-8226, 48 h
[2] = test system: A549; experiment: Cytotoxicity against human A549 cells after 48 hrs by SRB assay; conditions: A549, 48 h
[3] = test system: NCI-H322M; experiment: Cytotoxicity against human NCI-H322M cells after 48 hrs by SRB assay
[4] = test system: KM12; experiment: Cytotoxicity against human KM12 cells after 48 hrs by SRB assay; conditions: KM12, 48 h
[5] = test system: SNB-75; experiment: Cytotoxicity against human SNB75 cells after 48 hrs by SRB assay; conditions: SNB-75, 48 h
[6] = test system: SK-MEL-28; experiment: Cytotoxicity against human SK-MEL-28 cells after 48 hrs by SRB assay; conditions: SK-MEL-28, 48 h
[7] = test system: SK-MEL-5; experiment: Cytotoxicity against human SK-MEL-5 cells after 48 hrs by SRB assay; conditions: SK-MEL-5, 48 h
[8] = test system: OVCAR-8; experiment: Cytotoxicity against human OVCAR8 cells after 48 hrs by SRB assay; conditions: OVCAR-8, 48 h
[9] = test system: BT-549; experiment: Cytotoxicity against human BT549 cells after 48 hrs by SRB assay; conditions: BT-549, 48 h
[10] = test system: MOLT-4; experiment: Growth inhibition of human MOLT4 cells assessed as cell growth at 10^-8 M incubated for 48 hrs by sulforhodamine B assay relative to control; conditions: MOLT-4, 48 h, read-out: Activity
[11] = test system: HOP-92; experiment: Growth inhibition of human HOP92 cells assessed as cell growth at 10^-8 M incubated for 48 hrs by sulforhodamine B assay relative to control; conditions: HOP-92, 48 h, read-out: Activity
[12] = test system: HT-29; experiment: Growth inhibition of human HT-29 cells assessed as cell growth at 10^-8 M incubated for 48 hrs by sulforhodamine B assay relative to control; conditions: HT-29, 48 h, read-out: Activity
[13] = test system: SNB-19; experiment: Growth inhibition of human SNB19 cells assessed as cell growth at 10^-8 M incubated for 48 hrs by sulforhodamine B assay relative to control; conditions: SNB-19, 48 h, read-out: Activity
[14] = test system: Malme-3M; experiment: Growth inhibition of human MALME-3M cells assessed as cell growth at 10^-8 M incubated for 48 hrs by sulforhodamine B assay relative to control; conditions: read-out: Activity
[15] = test system: OVCAR-4; experiment: Growth inhibition of human OVCAR4 cells assessed as cell growth at 10^-8 M incubated for 48 hrs by sulforhodamine B assay relative to control; conditions: OVCAR-4, 48 h, read-out: Activity
[16] = test system: BT-549; experiment: Growth inhibition of human BT549 cells assessed as cell growth at 10^-8 M incubated for 48 hrs by sulforhodamine B assay relative to control; conditions: BT-549, 48 h, read-out: Activity
[17] = test system: T47D; experiment: Growth inhibition of human T47D cells assessed as cell growth at 10^-8 M incubated for 48 hrs by sulforhodamine B assay relative to control; conditions: read-out: Activity
[18] = test system: MDA-MB-468; experiment: Growth inhibition of human MDA-MB-468 cells assessed as cell growth at 10^-8 M incubated for 48 hrs by sulforhodamine B assay relative to control; conditions: MDA-MB-468, 48 h, read-out: Activity
[19] = test system: NCI-H460; experiment: Growth inhibition of human NCI-H460 cells assessed as cell growth at 10^-7 M incubated for 48 hrs by sulforhodamine B assay relative to control; conditions: NCI-H460, 48 h, read-out: Activity
[20] = test system: SF-295; experiment: Growth inhibition of human SF295 cells assessed as cell growth at 10^-7 M incubated for 48 hrs by sulforhodamine B assay relative to control; conditions: SF-295, 48 h, read-out: Activity
[21] = test system: LOX IMVI; experiment: Growth inhibition of human LOXIMVI cells assessed as cell growth at 10^-7 M incubated for 48 hrs by sulforhodamine B assay relative to control; conditions: read-out: Activity
[22] = test system: TK-10; experiment: Growth inhibition of human TK10 cells assessed as cell growth at 10^-7 M incubated for 48 hrs by sulforhodamine B assay relative to control; conditions: TK-10, 48 h, read-out: Activity
[23] = test system: SW-620; experiment: Growth inhibition of human SW620 cells assessed as cell growth at 10^-6 M incubated for 48 hrs by sulforhodamine B assay relative to control; conditions: SW-620, 48 h, read-out: Activity
[24] = test system: SF-539; experiment: Growth inhibition of human SF539 cells assessed as cell growth at 10^-6 M incubated for 48 hrs by sulforhodamine B assay relative to control; conditions: SF-539, 48 h, read-out: Activity
[25] = test system: 786-0; experiment: Growth inhibition of human 786-0 cells assessed as cell growth at 10^-6 M incubated for 48 hrs by sulforhodamine B assay relative to control; conditions: 786-0, 48 h, read-out: Activity
[26] = test system: A549; experiment: Growth inhibition of human A549/ATCC cells assessed as cell growth at 10^-4 M incubated for 48 hrs by sulforhodamine B assay relative to control; conditions: A549, 48 h, read-out: Activity
[27] = read-out: LC50 (the source's name)
[28] = read-out: pLC50 (the source's name) (converted)

## C#C[C@@]1(O)[C@@H](CO)O[C@@H](n2cc(Cl)c3c(N)ncnc32)[C@@H]1O
[1]; read-out: GI50
  GI50: 144 to 159 nM
[1]; [27]
  CC50: > 100 µM
[1]; read-out: TGI
  TGI: 521 to 708 nM
[2]; read-out: GI50
  GI50: 138 to 237 nM
[2]; [28]
  CC50: > 100 µM
[3]; read-out: GI50
  GI50: 206 to 334 nM
[3]; read-out: TGI
  TGI: 2.12 to 4.63 µM
[3]; [28]
  CC50: > 100 µM
[4]; read-out: GI50
  GI50: 126 to 161 nM
[4]; [27]
  CC50: > 100 µM
[4]; read-out: TGI
  TGI: > 100 µM
[4]; read-out: pTGI (converted)
  TGI: > 100 µM
[5]; read-out: GI50
  GI50: 258 to 310 nM
[5]; [27]
  CC50: 1800 to 3210 nM
[5]; read-out: TGI
  TGI: 574 to 888 nM
[6]; read-out: GI50
  GI50: 469 to 706 nM
[6]; read-out: TGI
  TGI: 57.1 to 89.4 µM
[6]; [28]
  CC50: > 100 µM
[7]; read-out: GI50
  GI50: 109 to 140 nM
[7]; read-out: TGI
  TGI: 268 to 343 nM
[8]; read-out: GI50
  GI50: 10.2 to 33.6 nM
[8]; [27]
  CC50: > 100 µM
[8]; read-out: TGI
  TGI: 730 to 1480 nM
[9]; read-out: GI50
  GI50: 223 to 228 nM
[9]; read-out: TGI
  TGI: 640 to 685 nM
[10]
  growth at 0.01 µM: 81 to 83%
[11]
  growth at 0.01 µM: 90 to 97%
[12]
  growth at 0.01 µM: 83 to 92%
[13]
  growth at 0.01 µM: 68 to 94%
[14]
  growth at 0.01 µM: 93 to 100%
[15]
  growth at 0.01 µM: 89 to 90%
[16]
  growth at 0.01 µM: 88 to 95%
[17]
  growth at 0.01 µM: 71 to 84%
[18]
  growth at 0.01 µM: 97 to 103%
[19]
  growth at 0.1 µM: 13 to 27%
[20]
  growth at 0.1 µM: 66 to 77%
[21]
  growth at 0.1 µM: 34 to 47%
[22]
  growth at 0.1 µM: 100 to 101%
[23]
  growth at 1 µM: 2 to 7%
[24]
  growth at 1 µM: 6 to 10%
[25]
  growth at 1 µM: 9 to 11%
[26]
  growth at 100 µM: 8 to 12%

Source: ChEMBL document CHEMBL4270599, “Synthesis of a 3'-C-ethynyl-β-d-ribofuranose purine nucleoside library: Discovery of C7-deazapurine analogs as potent antiproliferative nucleosides” (Eur J Med Chem, 2018)
